# According to patent US20060153888A1, “Methods for scavenging oxidizing nitrogen and oxygen species with fragrances having antioxidative properties” (Access Business Group International LLC, priority 2004, published 2006):
# What was measured:
# [1] = DPPH Spectrophotometer Assay (free radical scavenging); format: biochemical; conditions: for DPPH EC50: Table 5; for antioxidant properties in words: comment on DPPH and NORA results of Table 5; for antioxidant capacity in words: in both DPPH and nitric oxide free radical systems, Table 3
# From the text: The free radical 2,2-Diphenyl-1-picrylhydrazyl (DPPH) may be used to determine free radical scavenging ability of test materials such as a scavenging agent of the present invention. […] Measurements are taken after the reaction between the test scavenging agent and DPPH reaches steady state. DPPH is a free radical that changes color when it reacts with an antioxidant. The color change in DPPH is an indication of antioxidant power. […] Thus, DPPH serves as a model for free radical oxidation. Provided below are details for conducting a DPPH Spectrophotometer Assay:
# Weigh 100 mg sample into 15 ml conical centrifuge tube.
# Add 1 ml DMSO. Vortex to mix.
# Dilute samples in MeOH according to Table 2.
# Dilute 1 mM DPPH (prepared in 80% MeOH) to 100 uM in 80% MeOH.
# In 3 ml cuvette, add 200 uL sample dilution. Add 1.8 ml of 100 uM DPPH.
# Mix well. Incubate 15 min at Room Temp. Read at […].
# If cuvette appears cloudy due to precipitation of sample, prepare sample dilutions (Table 2) in DMF (or suitable solvent) instead of DMSO. Also prepare DPPH working solution (100 uM) in DMF (or suitable solvent) instead of MeOH.
# [2] = Nitric Oxide Radical Absorbance (NORA) assay; format: biochemical; conditions: for inhibitory response for nitric oxide in words: comment on Table 3
# Procedure: The NORA assay determines the ability of a compound to quench nitric oxide free radicals (NO*) produced by a NO* generator. In the assay, a target compound is oxidized using the nitric oxide generator NOR-3, resulting in increased fluorescence. […] Provided below are details for conducting a Nitric Oxide Radical Absorbance (NORA) Assay:
# DHR123: 1.0 mg/3 ml MeOH=1 mM stock (Freeze and protect from light) 7.5 uL stock/10 ml Buffer=0.75 uM working solution.
# NOR-3: 1.0 mg NOR-3/100 uL DMSO.
# Oil: Weigh 100 mg into 15 ml polypropylene centrifuge tube. Add 5 ml
# Prepare sample dilution in a 96-well polypropylene storage plate (2 mL/well), the dilution plate: • A. 60 uL Stock+1.94 ml DMF=200 ug/ml • B. 500 uL 200 ug/ml+500 ul DMF=100 ug/ml • C.
# Positive Control: (1 uM Uric Acid)
# Add 100 uL of each sample/PC/Blank in duplicate. Row H will contain PC only.
# Add 70 uL Phosphate Buffer to all wells.
# Add 30 uL NOR-3 to all wells.
# Incubate plate 15 min at room temperature.
# [3] = amount of test material required to inhibit nitric oxide oxidation by 50%, Table 3
# [4] = Antioxidant Power equals 1/EC50, fragrant oils, Table 1
SMILES,DPPH EC50 [1] [g/g DPPH],NORA EC50 ([2]; Table 5) [mg/L],"NORA EC50 [2, 3] [mg/L]",other results
OCCOc1ccccc1 [2-Phenoxyethanol],>2.82,>10.0,–,–
OCCCc1ccccc1 [3-Phenyl-1-propanol],>2.82,>10.0,–,–
"Cc1cc(C(C)(C)C)c(O)c(C(C)(C)C)c1 [BHT, butylated hydroxytoluene]",0.15,>10.0,–,–
CC12CCC(CC1=O)C2(C)C (stereo not drawn) [Camphor],>2.82,>10.0,–,–
OCC=Cc1ccccc1 [Cinnamyl alcohol],>2.82,11.8,–,–
O=c1ccc2ccccc2o1 [Coumarin],>2.82,>10.0,–,–
CCCCCCCCC(=O)OCC [Ethyl monanoate],>2.82,>10.0,–,–
CCOC(=O)c1ccc(O)cc1 [Ethyl paraben],>2.82,>10.0,–,–
C=CCc1ccc(O)c(OC)c1 [Eugenol],0.12,0.8,–,antioxidant properties in words [1]: excellent antioxidant properties
COc1cc(/C=C/C(=O)O)ccc1O [Ferulic acid],0.19,0.3,–,antioxidant properties in words [1]: excellent antioxidant properties
"CC(C)CC1CC(C)(O)CCO1 (stereo not drawn) [Florosa (Q), Florosa]",–,–,150.33,–
"CCCCCC1COCCC1OC(C)=O (stereo not drawn) [Jasmopyrane (Q), Jasmopyrane]",–,–,150.44,inhibitory response for nitric oxide in words [2]: performed more poorly than did lilial
"CC(C=O)Cc1ccc(C(C)(C)C)cc1 (stereo not drawn) [Lilial (G), Lilial]",–,–,23.70,inhibitory response for nitric oxide in words [2]: better than expected inhibitory response
C=C(C)[C@H]1CC=C(C)CC1 [Limonene],>2.82,>10.0,–,–
Cc1occc(=O)c1O [Maltol],2.82,10.0,–,antioxidant properties in words [1]: performed marginally well
CC1CCC(C(C)C)C(O)C1 (stereo not drawn) [Menthol],>2.82,>10.0,–,–
Cc1ccc(C(C)C)cc1 [Paracymene],–,–,274.16,–
CC(=O)CCc1ccc(O)cc1 [Raspberry Ketone],–,–,10.14,antioxidant capacity in words [1]: greatest antioxidant capacity
Oc1cccc(O)c1 [Resorcinol],0.74,>10.0,–,antioxidant properties in words [1]: good responses
Cc1ccc(C(C)C)c(O)c1 [Thymol],0.65,>10.0,–,antioxidant properties in words [1]: good responses
"Cc1c(C)c2c(c(C)c1O)CCC(C)(C(=O)O)O2 (stereo not drawn) [Trolox, reference compound]",–,–,0.046,–
"O=c1[nH]c(=O)c2[nH]c(=O)[nH]c2[nH]1 [Uric Acid, reference compound]",–,–,0.84,–
COc1cc(C=O)ccc1O [Vanillin],–,–,8.95,"DPPH *AO Power [1, 4]: 0.0112 units/gram; antioxidant capacity in words [1]: greatest antioxidant capacity; NORA AO Power [2, 4]: 93 units/gram"
COc1cc(CO)ccc1O [Vanillyl alcohol],0.16,4.1,–,antioxidant properties in words [1]: excellent antioxidant properties
COc1cccc(CO)c1 [m-Anisyl alcohol],>2.82,>10.0,–,–
